Laboratory results from ChEMBL document CHEMBL4359849, “Bioisosteric ferrocenyl aminoquinoline-benzimidazole hybrids: Antimicrobial evaluation and mechanistic insights” (Eur J Med Chem, 2019).

Assays:
Plasmodium falciparum [1] = experiment: Antiplasmodial activity against chloroquine-resistant asexual blood stage of Plasmodium falciparum K1 by LDH assay; format: functional, organism-based
[2] = Selectivity index, ratio of IC50 for CHO cells to IC50 for chloroquine-resistant asexual blood stage of Plasmodium falciparum K1; format: toxicity; conditions: hamster, read-out: Ratio IC50
CHO = experiment: Cytotoxicity against CHO cells measured after 48 hrs by MTT assay; format: cell-based; conditions: Cricetulus griseus
[3] = Resistance index, ratio of IC50 for chloroquine-resistant asexual blood stage of Plasmodium falciparum K1 to IC50 for chloroquine-sensitive asexual blood stage of Plasmodium falciparum NF54; format: functional
[4] = test system: Mycobacterium tuberculosis; experiment: Antimycobacterial activity against Mycobacterium tuberculosis H37Rv after 7 days in presence of middlebrook 7H9/CAS medium by microplate alamar blue assay; format: functional; conditions: 168 h
[5] = test system: Mycobacterium tuberculosis; experiment: Antimycobacterial activity against Mycobacterium tuberculosis H37Rv after 7 days in presence of middlebrook 7H9/ADC medium by microplate alamar blue assay; format: functional; conditions: 168 h
Plasmodium falciparum [6] = experiment: Antiplasmodial activity against chloroquine-sensitive asexual blood stage of Plasmodium falciparum NF54 by LDH assay; format: functional, organism-based
[7] = test system: Mycobacterium tuberculosis; experiment: Antimycobacterial activity against Mycobacterium tuberculosis H37Rv after 14 days in presence of middlebrook 7H9/ADC medium by broth microdilution method; format: functional; conditions: 336 h
[8] = test system: Mycobacterium tuberculosis; experiment: Antimycobacterial activity against Mycobacterium tuberculosis H37Rv after 14 days in presence of middlebrook 7H9/CAS medium by broth microdilution method; format: functional; conditions: 336 h
[9] = Selectivity index, ratio of IC50 for CHO cells to IC50 for chloroquine-sensitive asexual blood stage of Plasmodium falciparum NF54; format: toxicity; conditions: hamster, read-out: Ratio IC50
Hemozoin [10] = experiment: Potency index, ratio of chloroquine IC50 to compound IC50 for inhibition of beta-hematin assessed as hemozoin formation
Hemozoin [11] = experiment: Inhibition of beta-hematin formation assessed as reduction in hemozoin formation incubated for 16 hrs by NP40 detergent-mediated assay
Plasmodium berghei [12] = experiment: Antimalarial activity against GFP-transfected Plasmodium berghei ANKA infected in mouse assessed as mean survival days at 50 mg/kg, po administered consecutively at 4, 24, 48 and 72 hrs post infection; format: functional
Plasmodium berghei [13] = experiment: Antimalarial activity against GFP-transfected Plasmodium berghei ANKA infected mouse assessed as reduction in parasitemia at 50 mg/kg, po consecutively at 4, 24, 48 and 72 hrs post infection by flow cytometry relative to control; format: functional

Compound `N#Cc1ccc2c(c1)nc(-c1ccccc1)n2CCCNc1ccnc2cc(Cl)ccc12` has an IC50 (Plasmodium falciparum [1]) of 179 nM, a selectivity ratio [2] of 217 and an IC50 (CHO) of 38900 nM. The Ratio IC50 [3] was 0.183, the MIC90 [4] was over 125 µM and the MIC90 [5] was over 62.5 µM. For the same compound, the IC50 (Plasmodium falciparum [6]) was 975 nM, the MIC90 [7] was over 125 µM and the MIC90 [8] was 62.5 µM. It also gave a selectivity ratio [9] of 39.9.
`FC(F)(F)c1ccc2c(c1)nc(-c1ccccc1)n2CCCNc1ccnc2cc(Cl)ccc12` gave an IC50 (Plasmodium falciparum [1]) of 151 nM, a selectivity ratio [2] of 107 and an IC50 (CHO) of 16200 nM. The Ratio IC50 [3] was 0.35, the Ratio IC50 (Hemozoin [10]) was 4 and the MIC90 [4] was 15.8 µM. The MIC90 [5] was 89.1 µM, the IC50 (Plasmodium falciparum [6]) was 431 nM and the MIC90 [7] was 62.5 µM. It also gave an IC50 (Hemozoin [11]) of 16000 nM, an MIC90 [8] of 15.6 µM and an MSD (Plasmodium berghei [12]) of 7 days. The inhibition in vivo at 50 mg/kg (Plasmodium berghei [13]) was 58% and the selectivity ratio [9] was 37.5.
With `C[C@H]1[C@H](OC(=O)CCC(=O)O)O[C@@H]2O[C@@]3(C)CC[C@H]4[C@H](C)CC[C@@H]1[C@@]24OO3` [ARTESUNATE] the IC50 (Plasmodium falciparum [6]) was 9.8 nM.
Compound `Cc1ccc2c(c1)nc(-c1ccccc1)n2CCCNc1ccnc2cc(Cl)ccc12` has an IC50 (Plasmodium falciparum [1]) of 457 nM, an IC50 (CHO) of over 50000 nM and a Ratio IC50 [3] of 0.583. For the same compound, the MIC90 [4] was 32.7 µM, the MIC90 [5] was over 62.5 µM and the IC50 (Plasmodium falciparum [6]) was 784 nM. The MIC90 [7] was 125 µM and the MIC90 [8] was 31.2 µM.
For `Clc1ccc2c(NCCCn3c(-c4ccccc4)nc4ccccc43)ccnc2c1`, the IC50 (Plasmodium falciparum [1]) was 201 nM, the selectivity ratio [2] was 209 and the IC50 (CHO) was 42000 nM. The Ratio IC50 [3] was 0.0362, the MIC90 [4] was 50.6 µM and the MIC90 [5] was 38.8 µM. It also gave an IC50 (Plasmodium falciparum [6]) of 5550 nM, an MIC90 [7] of 125 µM and an MIC90 [8] of 62.5 µM. It also gave a selectivity ratio [9] of 7.57.
`CS(=O)(=O)c1ccc2c(c1)nc(-c1ccccc1)n2CCCNc1ccnc2cc(Cl)ccc12` showed an IC50 (Plasmodium falciparum [1]) of 1830 nM, a selectivity ratio [2] of 22.4 and an IC50 (CHO) of 40900 nM. The Ratio IC50 [3] was 3.28, the MIC90 [4] was over 125 µM and the MIC90 [5] was over 62.5 µM. It also gave an IC50 (Plasmodium falciparum [6]) of 559 nM, an MIC90 [7] of over 125 µM and an MIC90 [8] of 125 µM. The selectivity ratio [9] was 73.2.
Work on `CCN(CC)CCCC(C)Nc1ccnc2cc(Cl)ccc12` (centres undefined) [CHLOROQUINE] yielded an IC50 (Hemozoin [11]) of 74000 nM.
In the case of `CC[C@H]1CN2CCc3cc(OC)c(OC)cc3[C@@H]2C[C@@H]1C[C@H]1NCCc2cc(OC)c(OC)cc21` [EMETINE], the IC50 (CHO) is reported as 16.2 nM.
`CO[C@H]1/C=C/O[C@@]2(C)Oc3c(C)c(O)c4c(O)c(c(/C=N/N5CCN(C)CC5)c(O)c4c3C2=O)NC(=O)/C(C)=C\C=C\[C@H](C)[C@H](O)[C@@H](C)[C@@H](O)[C@@H](C)[C@H](OC(C)=O)[C@@H]1C` [RIFAMPIN] showed an MIC90 [4] of 0.0217 µM, an MIC90 [5] of 0.0156 µM and an MIC90 [7] of 0.018 µM. The MIC90 [8] was 0.018 µM.
